Reference: PMC12271471, “Direct synthesis of mycophenolic acid aryl esters with antioxidant and antiproliferative properties” (Scientific Reports, 2025)

Experiments:
Type in all cases: cell-based, human
[1] = tested on: IMPDH (PBMC proliferation); assay: GMP test: PBMC proliferation with or without guanosine source (IMPDH inhibition); details: for PBMC proliferation upon GMP addition (reversal of inhibition): with 50 µM GMP
Experimental: ESI Figure 4. Antiproliferative activity of MPA, MMF, and various esters of MPA in the presence of guanosine source — role of IMPDH inhibiton. VPD450-labeled human PBMCs, in the presence of different concentrations (50; 25; 10; 1, and 0.1 μM) of MPA, MMF, and esters, and stimulated (magnetic beads coated with anti-CD3 and anti-CD28 antibodies) were cultured with or without the addition of 50 μM GMP for 72 h. Cell proliferation was analyzed […]
(§1) (1 picture or pasted object on this page, not shown here) […]
(§2) inhibited cell viability by more than 50%. Each experiment was conducted in triplicate, and the final […]
(§3) VPD450 dye-based in vitro cell proliferation test
(§4) PBMCs and T-Jurkat cells were washed twice with warm PBS (37°C), re-suspended in fresh PBS at a final concentration of 10-30∙10^6 cells/ml, and labelled with 1 µl of VPD450 (BD Biosciences) at 37°C for 15 minutes, with vortexing every 5 minutes to ensure uniform staining. Subsequently, cells were washed with PBS, then with the complete medium (X-VIVO20 for PBMCs and RPMI-1640 for T-Jurkat cells), next re-suspended in fresh complete medium and seeded into 96-well plates at a concentration of 1∙10^6 cells per well. PBMCs were additionally stimulated with magnetic beads coated with anti-CD3 and anti-CD28 antibodies (Invitrogen) at a 2:1 cell-to-bead ratio. To the experimental wells, 100 µl of the MPA derivatives were added to achieve final concentrations of 50, 25, 10, 5, 1, 0.1, and 0.01 µM. In parallel, control wells containing stained but unstimulated cells and stained, stimulated cells were prepared at the same concentration. Cell proliferation was analyzed using an LSRFortessa flow cytometer (BD Biosciences) and Kaluza C Flow Cytometry Analysis Software (Beckman Coulter).
The data were expressed as EC50 values for compounds that inhibited more than 50% of cell […]
Enzyme inhibition in the presence of guanosine source (GMP test)
PBMCs were suspended in a 15 mL centrifuge tube at a concentration of 10-30 × 10⁶ cells in 1 mL of PBS, then, 2 μL of 1 mM VPD 450 dye solution was added, incubated for 15 min at 37°C, washed with a 9-fold volume of warm PBS and centrifuged at 400 x g for 5 min. Then, the cells were suspended in 10 mL of X-VIVO medium with 10% FBS and centrifuged again at 400 x g for 5 min. After suspending the cells in the complete medium, the staining level was checked using flow cytometry. The cells thus obtained were stimulated with anti-CD3/anti-CD28 antibodies as described previously (see VPD450 dye-based in vitro cell proliferation test). To perform the GMP test, a proper amount of GMP was added to each well to reach its final concentration of 50 μM, and then incubated for 72 hours. Proliferative activity was tested in the presence of various concentrations of compounds (50; 25; 10; 1 and 0.1 μM; MPA and selected amide derivatives) or without their addition. Cell proliferation was assessed using […]
(§5) Statistical analysis was conducted using GraphPad Prism 9 (GraphPad Software Inc).
(§6) Differences between MMF, MPA and its new derivatives were assessed using a two-tailed unpaired Student’s t-test, with statistical significance defined as p < 0.05. EC50 and IC50 values were determined by fitting data to a four-parameter non-linear regression model in GraphPad Prism 9. Statistical significance was evaluated using the t-test.

T-Jurkat cells = assay: VPD450 proliferation test (flow cytometry) on T-Jurkat cells; details: for EC50: Homo sapiens, T-Jurkat, 48 h, mean ± SD; for SI selectivity index T-Jurkat (IC50/EC50): ratio between IC50 (XTT) and EC50 (VPD450) on T-Jurkat cell line; for IS internal selectivity (EC50 PBMCs / EC50 T-Jurkat): ratio between VPD450 EC50 values for PBMCs and T-Jurkat cell line
Experimental: (§7) These values indicate the concentration of any compound at which proliferation of PBMCs (healthy cells), and T-Jurkat cells (T-cell leukemia), is inhibited by 50% compared to the control. Cells were treated with the compounds for 72 h (PBMCs) or 48 h (T-Jurkat), followed by a […] VPD450 test. The results are presented in ESI Fig. S3 as proliferation curves concerning concentration.
(§8) ESI Figure 3. Concentration-dependent change in proliferation under the treatment of ester derivatives of MPA. (A) VPD450-labelled PBMCs were cultured in the presence of different concentrations (100; 50; 25; 10; 1; 0.1, and 0.01 μM) of MPA, MMF, and ester derivatives, and stimulated with magnetic beads coated with anti-CD3 and anti-CD28 antibodies for 72 hours. (B) VPD450-labelled T-Jurkat cells were cultured in the presence of different concentrations (100; 10; 1; 0.1 and 0.01 μM) of MPA and ester derivatives for 48 hours. The plots were separated based on the type of ester derivative (P or MP). Cell proliferation was analyzed using flow cytometry. The results are expressed […]
as §1, §2, §3
as §4, with “Coulter). […]” for “Coulter).”
as §5, §6

PBMCs = assay: VPD450 proliferation test (flow cytometry) on PBMCs; details: for EC50: Homo sapiens, PBMC, PBMCs stimulated with anti-CD3/anti-CD28 beads, 72 h, mean ± SD; for SI selectivity index PBMCs (IC50/EC50): ratio between IC50 (XTT) and EC50 (VPD450) on PBMCs
Experimental: as §7, §8, §1, §2, §3
as §4, with “Coulter). […]” for “Coulter).”
as §5, §6

Row | EC50 (T-Jurkat cells) [µM] | IS internal selectivity (EC50 PBMCs / EC50 T-Jurkat) (T-Jurkat cells) | Structure (SMILES) | Inhibition of PBMC proliferation ([1]; 50 µM compound, without GMP, 72 h) | SI selectivity index T-Jurkat (IC50/EC50) (T-Jurkat cells) | EC50 (PBMCs) [µM] | SI selectivity index PBMCs (IC50/EC50) (PBMCs) | PBMC proliferation upon GMP addition (reversal of inhibition) ([1]; 50 µM compound, 72 h) | Inhibition of PBMC proliferation ([1]; 50 µM) | inhibition at 50 µM ([1]; Homo sapiens, PBMC, 50 µM compound, without GMP, 72 h) [%]
1 | 0.609 ± 0.03 | 1.704 | COc1c(C)c2c(c(O)c1C/C=C(\C)CCC(=O)OCCN1CCOCC1)C(=O)OC2 [MMF, mycophenolate mofetil, reference compound] | near-complete inhibition | 1.216 | 1.037 ± 0.006 | 16.020 | – | – | –
2 | 0.78 ± 0.034 | 1.418 | COc1ccccc1OC(=O)CC/C(C)=C/Cc1c(O)c2c(c(C)c1OC)COC2=O [MP1] | – | 1.259 | 1.106 ± 0.004 | 13.365 | – | – | –
3 | 2.64 ± 0.035 | 2.042 | COc1cccc(OC)c1OC(=O)CC/C(C)=C/Cc1c(O)c2c(c(C)c1OC)COC2=O [MP2] | – | 0.662 | 5.395 ± 0.006 | 4.174 | – | – | –
4 | 4.458 ± 0.04 | 3.083 | COc1cc(C=O)cc(OC)c1OC(=O)CC/C(C)=C/Cc1c(O)c2c(c(C)c1OC)COC2=O [MP3] | – | 0.997 | 13.742 ± 0.005 | 0.770 | – | – | –
5 | 7.509 ± 0.036 | 0.386 | COc1cc(C=O)ccc1OC(=O)CC/C(C)=C/Cc1c(O)c2c(c(C)c1OC)COC2=O [MP4] | – | 0.710 | 2.9 ± 0.005 | 8.098 | – | – | –
6 | 4.923 ± 0.034 | 1.571 | COC(=O)/C=C/c1ccc(OC(=O)CC/C(C)=C/Cc2c(O)c3c(c(C)c2OC)COC3=O)c(OC)c1 [MP7] | – | 0.286 | 7.734 ± 0.007 | 3.935 | – | – | –
7 | 1.74 ± 0.023 | 0.665 | C=CCc1ccc(OC(=O)CC/C(C)=C/Cc2c(O)c3c(c(C)c2OC)COC3=O)c(OC)c1 [MP8] | – | 0.983 | 1.154 ± 0.003 | 15.409 | – | – | –
8 | 1.84 ± 0.043 | 1.283 | C/C=C/c1ccc(OC(=O)CC/C(C)=C/Cc2c(O)c3c(c(C)c2OC)COC3=O)c(OC)c1 [MP9] | – | 1.070 | 2.356 ± 0.003 | 8.978 | comparable pattern | – | –
9 | 2.01 ± 0.042 | 0.573 | COc1c(C)c2c(c(O)c1C/C=C(\C)CCC(=O)Oc1ccc3c(c1)OCO3)C(=O)OC2 [P1] | – | 0.533 | 1.152 ± 0.004 | 108.919 | reversed | – | ~80
10 | 4.477 ± 0.033 | 0.317 | COc1c(C)c2c(c(O)c1C/C=C(\C)CCC(=O)Oc1cc(C)ccc1C(C)C)C(=O)OC2 [P2] | – | 0.552 | 1.417 ± 0.003 | 11.538 | – | – | –
11 | 3.53 ± 0.045 | 1.380 | COC(=O)/C=C/c1ccccc1OC(=O)CC/C(C)=C/Cc1c(O)c2c(c(C)c1OC)COC2=O [P4] | – | 0.470 | 4.865 ± 0.004 | 5.321 | comparable pattern | – | –
12 | 2.357 ± 0.023 | 0.703 | COc1c(C)c2c(c(O)c1C/C=C(\C)CCC(=O)Oc1ccc(C=O)cc1)C(=O)OC2 [P5] | – | 0.671 | 1.656 ± 0.003 | 6.007 | – | – | –
13 | 2.23 ± 0.044 | 0.470 | COc1c(C)c2c(c(O)c1C/C=C(\C)CCC(=O)Oc1ccc(CCC(C)=O)cc1)C(=O)OC2 [P7] | – | 1.083 | 1.047 ± 0.006 | 48.036 | comparable pattern | – | –

Row | Structure (SMILES) | EC50 (T-Jurkat cells) [µM] | IS internal selectivity (EC50 PBMCs / EC50 T-Jurkat) (T-Jurkat cells) | Inhibition of PBMC proliferation ([1]; 50 µM compound, without GMP, 72 h) | SI selectivity index T-Jurkat (IC50/EC50) (T-Jurkat cells) | EC50 (PBMCs) [µM] | SI selectivity index PBMCs (IC50/EC50) (PBMCs) | PBMC proliferation upon GMP addition (reversal of inhibition) ([1]; 50 µM compound, 72 h) | Inhibition of PBMC proliferation ([1]; 50 µM) | inhibition at 50 µM ([1]; Homo sapiens, PBMC, 50 µM compound, without GMP, 72 h) [%]
14 | COc1c(C)c2c(c(O)c1C/C=C(\C)CCC(=O)O)C(=O)OC2 [MPA, Mycophenolic acid] | 0.924 ± 0.034 | 1.249 | – | 0.570 | 1.154 ± 0.006 | 16.232 | – | near-complete inhibition | –
